Like-named read-outs stand apart in the source and are kept apart here.
Key:
Type in all cases: in vivo, human
[1] = Phase 1 Part 1a: single rising oral doses, fasted, plasma pharmacokinetics; settings: for AUC(0-inf) / Cmax / Tmax / half-life: human, plasma
Text: A Randomized, Double-Blind, Placebo-Controlled, Phase 1 Study to Assess the Safety, Tolerability, Pharmacokinetics and Food Effect of Single and Multiple Doses of Orally Administered Compound of Formula (I) in Healthy Adult and Elderly Subjects The study was a single-centre, randomized, placebo-controlled single- and multiple ascending dose study in healthy male and female (no childbearing potential) volunteers aged 18-80 years. Study objectives were safety, tolerability, food effect and pharmacokinetics. Following identification of safe and tolerable single doses in healthy male subjects aged 18-55 years, separate cohorts were dosed to assess food effect. Furthermore, multiple-dose safety, tolerability, pharmacokinetics, CSF drug levels and pharmacodynamics were assessed in elderly (age 55-80 years) male or healthy non-child-bearing potential female volunteers. [table] The single-dose pharmacokinetics of seven, ascending, dose levels of compound of Formula (I) (20, 40, 80, 160, 300, 600 and 1000 mg of compound (I) fasted state) were evaluated in part 1a of a randomized, placebo-controlled, time lagged, parallel/crossover group study in healthy young volunteers Compound (I) pharmacokinetic data were measured in plasma and in urine up to 72 hours post dose.

[2] = tested on: patients with probable PSP Richardson's syndrome; assay: Phase 2 clinical trial in progressive supranuclear palsy (Example 6); settings: 300 mg or 150 mg TID PO, clinical study protocol
Text: CLINICAL STUDY PROTOCOL: A Randomized, Double-blind, Placebo-Controlled Study to Evaluate the Efficacy and Safety of compound of formula (I) for the Treatment of Progressive Supranuclear Palsy
PRIMARY OBJECTIVE: To evaluate the safety and tolerability of two different doses of compound (I) compared with placebo for the treatment of PSP
STUDY DESIGN: This is a randomized, multi-centre, double-blind, placebo-controlled trial to study the safety and tolerability of compound (I) in patients with probable PSP Richardson's syndrome. Approximately 40 patients (40 to 85 years of age, inclusive) are randomized in a 2:1:1 ratio to 300 mg or 150 mg or placebo TID PO with meals.
For all subjects, a screening visit is performed up to 6 weeks prior to dosing to determine eligibility. Eligible patients take investigational product (compound (I) or placebo) orally daily for about 12 weeks. Safety and tolerability data are collected at required visits to the study site. In addition, an “at home visit” for safety assessment and blood draw is organized. An open-label extension period of 52 weeks takes place upon completion of the initial double-blind treatment period. […]
PRIMARY SAFETY ENDPOINT: Frequency of treatment-emergent adverse events recorded in the three treatment arms at Week 12.

[3] = Phase 1 Part 2: cerebrospinal fluid (CSF) pharmacokinetics after multiple BID doses; settings: for Cmax / AUC / half-life / Tmax: human, oral, CSF; for AUC: read-out: AUC0-tau; for Tmax: median (min, max)
Text: Day 1: Twice a day (BID) dosing. Day 2: No dosing. Day 3-11: 9 days of BID dosing. Day 12: one dose in the morning.

[4] = single oral dose 20 mg, fasted, healthy male subjects, arithmetic mean
[5] = single oral dose 40 mg, fasted, healthy male subjects, arithmetic mean
[6] = single oral dose 80 mg, fasted, healthy male subjects, arithmetic mean
[7] = single oral dose 160 mg, fasted, healthy male subjects, arithmetic mean
[8] = single oral dose 300 mg, fasted, healthy male subjects, arithmetic mean
[9] = single oral dose 600 mg, fasted, healthy male subjects, arithmetic mean
[10] = single oral dose 1000 mg, fasted, healthy male subjects, arithmetic mean
[11] = both sexes, 250 mg BID, Day 12, elderly subjects, arithmetic mean
[12] = both sexes, 500 mg BID, Day 12, elderly subjects, arithmetic mean
[13] = 100 mg BID, Day 12, elderly subjects, N=1

In the case of `CC(=O)Nc1nnc(N2CCN([C@@H](C)c3ccc4c(c3)OCO4)CC2)s1` [Compound (I)], the “deviation of dose normalized AUC” value ([1]; AUC over 24 hours, dose levels 300, 600 and 1000 mg) is reported as no more than 10%, the AUC(0-inf) [1, 4] is reported as 473 ng·h/mL and the Cmax [1, 4] is reported as 227 ng/mL. The Tmax ([1]; single oral dose 20 mg, fasted, healthy male subjects, median (min, max), read-out: Tmax) was 0.5 h, the AUC(0-inf) [1, 5] was 1160 ng·h/mL and the Cmax [1, 5] was 468 ng/mL. The Tmax ([1]; single oral dose 40 mg, fasted, healthy male subjects, median (min, max), read-out: Tmax) was 1 h, the AUC(0-inf) [1, 6] was 3270 ng·h/mL and the Cmax [1, 6] was 1370 ng/mL. For the same compound, the Tmax ([1]; single oral dose 80 mg, fasted, healthy male subjects, median (min, max), read-out: Tmax) was 0.5 h, the AUC(0-inf) [1, 7] was 7010 ng·h/mL and the Cmax [1, 7] was 1880 ng/mL. The Tmax ([1]; single oral dose 160 mg, fasted, healthy male subjects, median (min, max), read-out: Tmax) was 1.5 h, the AUC(0-inf) [1, 8] was 15400 ng·h/mL and the Cmax [1, 8] was 3990 ng/mL. The Tmax ([1]; single oral dose 300 mg, fasted, healthy male subjects, median (min, max), read-out: Tmax) was 1.25 h, the AUC(0-inf) [1, 9] was 33300 ng·h/mL and the Cmax [1, 9] was 7180 ng/mL. The Tmax ([1]; single oral dose 600 mg, fasted, healthy male subjects, median (min, max), read-out: Tmax) was 1.25 h, the AUC(0-inf) [1, 10] was 50200 ng·h/mL and the Cmax [1, 10] was 10100 ng/mL. For the same compound, the Tmax ([1]; single oral dose 1000 mg, fasted, healthy male subjects, median (min, max), read-out: Tmax) was 1.5 h, the half-life ([1]; male, oral, single dose 20 to 1000 mg, read-out: terminal half-life (t½), range of means at the different dose levels) was 3.9 to 10.7 h and the half-life ([1]; male, oral, single dose 20 mg to 1000 mg, read-out: mean terminal half-life, range over the 7 dose levels) was 4.59 to 8.84 h. For the same compound, the Tmax ([1]; male, oral, single dose 20 mg to 1000 mg, read-out: median Tmax, range over dose levels) was 0.5 to 1.5 h, the half-life ([1]; male, po, 20 mg, single oral dose 20 mg, fasted, healthy male subjects, arithmetic mean, read-out: t1/2 (converted)) was 4.59 h and the half-life ([1]; male, po, 40 mg, single oral dose 40 mg, fasted, healthy male subjects, arithmetic mean, read-out: t1/2 (converted)) was 5.95 h. The half-life ([1]; male, po, 80 mg, single oral dose 80 mg, fasted, healthy male subjects, arithmetic mean, read-out: t1/2 (converted)) was 8.84 h, the half-life ([1]; male, po, 160 mg, single oral dose 160 mg, fasted, healthy male subjects, arithmetic mean, read-out: t1/2 (converted)) was 6.83 h and the half-life ([1]; male, po, 300 mg, single oral dose 300 mg, fasted, healthy male subjects, arithmetic mean, read-out: t1/2 (converted)) was 7.95 h. The half-life ([1]; male, po, 600 mg, single oral dose 600 mg, fasted, healthy male subjects, arithmetic mean, read-out: t1/2 (converted)) was 6.07 h, the half-life ([1]; male, po, 1000 mg, single oral dose 1000 mg, fasted, healthy male subjects, arithmetic mean, read-out: t1/2 (converted)) was 6.6 h and the “dose proportionality of Cmax” value ([1]; single dose, dosing range 20 mg to 1000 mg) was “Dose proportionality was observed”. For the same compound, the “dose proportionality of AUCs” value ([1]; single dose, dosing range 300 mg to 1000 mg) was “Dose proportionality was observed”, the “safety and tolerability of the preferred dosage regimen” value [2] was “especially safe and well tolerated” and the “blood-brain-barrier penetration (detection in CSF)” value ([3]; Day 12 after multiple doses) was “penetrated through the blood-brain-barrier”. For the same compound, the Cmax [3, 11] was 92.5 ng/mL, the AUC [3, 11] was 485 ng·h/mL and the half-life ([3]; both sexes, 250 mg BID, Day 12, elderly subjects, arithmetic mean, read-out: t1/2 (converted)) was 10.3 h. It also gave a Tmax ([3]; both sexes, 250 mg BID, Day 12, elderly subjects) of 3 h, a Cmax [3, 12] of 282 ng/mL and an AUC [3, 12] of 1400 ng·h/mL. For the same compound, the half-life ([3]; both sexes, 500 mg BID, Day 12, elderly subjects, arithmetic mean, read-out: t1/2 (converted)) was 10.8 h, the Tmax ([3]; both sexes, 500 mg BID, Day 12, elderly subjects) was 2.02 h and the half-life ([3]; both sexes, 100 to 500 mg BID, read-out: terminal half-life (t½), range of means) was 3.9 to 10.7 h. For the same compound, the Cmax [3, 13] was 46.7 ng/mL, the AUC [3, 13] was 236 ng·h/mL and the half-life ([3]; 100 mg BID, Day 12, elderly subjects, N=1, read-out: t1/2 (converted)) was 5.78 h. The Tmax [3, 13] was 4.03 h.
